Assay results reported in US8889666B2, “Quinolyl pyrrolo pyrimidyl condensed-ring compound and salt thereof” (Taiho Pharmaceutical Co., Ltd., priority 2012, dated 2014).

Columns and labels:
Type in all cases: biochemical
EGFR (T790M/L858R) = biological target: T1, EGFR (T790M/L858R) (Homo sapiens, UniProt P00533, L858R/T790M); assay: EGFR (T790M/L858R) kinase inhibitory activity (in vitro); conditions: for IC50: recombinant human protein, ATP 1 μM, 120 minutes; for inhibitory activities for EGFR (L858R), EGFR (d746-750), EGFR (T790M/L858R) and EGFR (d746-750/T790M), in words: summary of Table 1, all four mutant kinases
T1 construct: purchased Carna Biosciences, Inc
T1 sequence (P00533 25-1210 T790M/L858R): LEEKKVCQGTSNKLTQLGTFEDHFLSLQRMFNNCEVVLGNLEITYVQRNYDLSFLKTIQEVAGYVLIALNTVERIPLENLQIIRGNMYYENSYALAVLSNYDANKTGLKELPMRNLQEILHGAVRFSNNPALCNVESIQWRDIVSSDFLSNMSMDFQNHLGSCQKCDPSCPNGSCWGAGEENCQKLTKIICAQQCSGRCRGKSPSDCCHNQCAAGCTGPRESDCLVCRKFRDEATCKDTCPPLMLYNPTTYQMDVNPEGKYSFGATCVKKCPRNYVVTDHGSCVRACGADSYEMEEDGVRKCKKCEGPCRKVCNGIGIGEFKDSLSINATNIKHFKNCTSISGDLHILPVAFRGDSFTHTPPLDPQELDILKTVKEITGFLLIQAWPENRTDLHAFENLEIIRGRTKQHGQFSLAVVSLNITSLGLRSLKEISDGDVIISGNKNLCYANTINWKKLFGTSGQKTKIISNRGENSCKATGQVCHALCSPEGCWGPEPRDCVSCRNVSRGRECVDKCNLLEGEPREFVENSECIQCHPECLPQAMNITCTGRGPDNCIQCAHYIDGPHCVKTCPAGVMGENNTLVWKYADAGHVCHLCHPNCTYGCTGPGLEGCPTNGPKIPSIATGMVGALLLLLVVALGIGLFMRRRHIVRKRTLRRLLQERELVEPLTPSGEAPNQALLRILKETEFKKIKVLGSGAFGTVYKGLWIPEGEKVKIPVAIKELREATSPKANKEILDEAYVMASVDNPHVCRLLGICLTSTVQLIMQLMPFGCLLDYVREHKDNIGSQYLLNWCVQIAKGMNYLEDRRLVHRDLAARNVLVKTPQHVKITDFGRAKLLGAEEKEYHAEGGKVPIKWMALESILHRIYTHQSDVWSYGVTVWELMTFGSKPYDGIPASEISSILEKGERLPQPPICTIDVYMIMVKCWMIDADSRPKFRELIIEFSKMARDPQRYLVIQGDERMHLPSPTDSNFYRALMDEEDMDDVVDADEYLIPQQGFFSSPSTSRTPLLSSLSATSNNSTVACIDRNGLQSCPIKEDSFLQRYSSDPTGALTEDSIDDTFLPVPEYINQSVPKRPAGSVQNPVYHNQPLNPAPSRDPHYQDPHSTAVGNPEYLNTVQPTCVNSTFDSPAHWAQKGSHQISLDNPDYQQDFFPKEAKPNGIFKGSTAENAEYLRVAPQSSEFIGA
Procedure: 1) Measurement of EGFR (T790M/L858R) Kinase Inhibitory Activity
The inhibitory activities of the compounds I-1, I-2, I-3, I-4, I-5, I-6, I-7, I-8, and I-9 for EGFR (T790M/L858R) kinase were measured.
The materials were as follows. The substrate peptide was a biotinylated peptide (biotin-EEPLYWSFPAKKK) synthesized by reference to the amino acid sequence of FL-Peptide 22 (a reagent for LabChip® Series; Caliper Life Sciences, Inc.). The EGFR (T790M/L858R) was a purified recombinant human EGFR (T790M/L858R) protein purchased from Carna Biosciences, Inc.
(§1) The measurement method was as follows. The compounds I-1, I-2, I-3, I-4, I-5, I-6, I-7, I-8, and I-9 were each dissolved in dimethylsulfoxide (DMSO), and then each serially diluted with DMSO. Next, the EGFR (T790M/L858R) protein, substrate peptide (final concentration: 250 nM), magnesium chloride (final concentration: 10 mM), manganese chloride (final concentration: 10 mM), ATP (final concentration: 1 μM), and the diluted DMSO solution of each compound (final concentration of DMSO: 2.5%) were added to a kinase reaction buffer (Carna Biosciences, Inc.), and the mixture was incubated at 25° C. for 120 minutes for kinase reaction. EDTA was added thereto to a final concentration of 24 mM to thereby terminate the reaction. Then, a detection solution containing europium (Eu)-labeled anti-phosphorylated tyrosine antibody PT66 (PerkinElmer) and SureLight APC-SA (PerkinElmer) was added, and the resulting mixture was allowed to stand at room temperature for 2 hours or more. Finally, the intensity of fluorescence under the excitation light with a wavelength of 337 nm was measured by a PHERAstar FS (BMG LABTECH) at two wavelengths of 620 nm and 665 nm. The level of phosphorylation of each test sample was calculated from the fluorescence intensity ratio of the two wavelengths in DMSO control and in the test sample, and the compound concentration at which phosphorylation was inhibited by 50% was determined as the IC50 value (nM) of each compound.

EGFR (d746-750) = biological target: T2, EGFR (d746-750) (Homo sapiens, UniProt P00533, DEL746-750); assay: EGFR (d746-750) kinase inhibitory activity (in vitro); conditions: recombinant human protein, ATP 5 μM, 90 minutes
T2 construct: purchased Carna Biosciences, Inc
T2 sequence (P00533 with tags, fused parts or gaps DEL746-750 limits assumed): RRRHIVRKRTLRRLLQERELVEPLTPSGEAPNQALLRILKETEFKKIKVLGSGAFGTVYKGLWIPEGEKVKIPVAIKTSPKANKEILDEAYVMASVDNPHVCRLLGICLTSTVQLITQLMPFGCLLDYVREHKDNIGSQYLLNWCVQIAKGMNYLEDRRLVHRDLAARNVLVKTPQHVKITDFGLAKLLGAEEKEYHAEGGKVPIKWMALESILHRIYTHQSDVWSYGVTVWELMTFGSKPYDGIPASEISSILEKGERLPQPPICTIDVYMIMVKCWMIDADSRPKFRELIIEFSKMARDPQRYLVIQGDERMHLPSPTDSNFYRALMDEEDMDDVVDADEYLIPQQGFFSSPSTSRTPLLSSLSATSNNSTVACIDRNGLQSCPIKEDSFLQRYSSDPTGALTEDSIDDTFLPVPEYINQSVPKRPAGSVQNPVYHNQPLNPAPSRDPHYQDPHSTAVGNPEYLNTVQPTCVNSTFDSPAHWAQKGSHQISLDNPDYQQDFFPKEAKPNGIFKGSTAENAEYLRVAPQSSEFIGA
Procedure: as §1
4) Measurement of EGFR (d746-750) Kinase Inhibitory Activity
The inhibitory activities of the compounds I-1, I-2, I-3, I-4, I-5, I-6, I-7, I-8, and I-9 for EGFR (d746-750) kinase activity were measured.
(§2) The materials were as follows. The EGFR (d746-750) was a purified recombinant human EGFR (d746-750) protein purchased from Carna Biosciences, Inc. The final concentration of ATP was 5 μM. The incubation time for the kinase reaction was 90 minutes. As for other conditions, the same materials and methods as those used in the measurement of EGFR (T790M/L858R) kinase inhibitory activity were used to determine the IC50 value (nM) of each compound.

EGFR (d746-750/T790M) = biological target: T3, EGFR (d746-750/T790M) (Homo sapiens, UniProt P00533, DEL746-750/T790M); assay: EGFR (d746-750/T790M) kinase inhibitory activity (in vitro); conditions: recombinant human protein, ATP 1.5 μM
T3 construct: purchased Carna Biosciences, Inc
T3 sequence (P00533 with tags, fused parts or gaps DEL746-750/T790M limits assumed): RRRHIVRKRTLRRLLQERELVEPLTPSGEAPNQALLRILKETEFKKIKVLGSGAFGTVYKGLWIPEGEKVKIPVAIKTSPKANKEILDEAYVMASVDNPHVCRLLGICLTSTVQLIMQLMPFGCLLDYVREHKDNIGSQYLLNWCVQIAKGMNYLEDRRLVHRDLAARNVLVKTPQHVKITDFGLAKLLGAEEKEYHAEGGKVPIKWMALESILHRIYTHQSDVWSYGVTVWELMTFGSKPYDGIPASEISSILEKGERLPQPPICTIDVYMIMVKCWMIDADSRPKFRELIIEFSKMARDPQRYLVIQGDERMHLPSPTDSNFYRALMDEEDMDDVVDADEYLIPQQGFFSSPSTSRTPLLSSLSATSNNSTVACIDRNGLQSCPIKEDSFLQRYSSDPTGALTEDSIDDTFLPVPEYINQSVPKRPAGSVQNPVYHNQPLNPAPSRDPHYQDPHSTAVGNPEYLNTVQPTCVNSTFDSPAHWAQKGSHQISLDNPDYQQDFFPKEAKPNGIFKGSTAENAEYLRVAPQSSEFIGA
Procedure: as §1
2) Measurement of EGFR (d746-750/T790M) Kinase Inhibitory Activity
The inhibitory activities of the compounds I-1, I-2, I-3, I-4, I-5, I-6, I-7, I-8, and I-9 for EGFR (d746-750/T790M) kinase were measured.
as §2, with “EGFR (d746-750/T790M)” for “EGFR (d746-750)”, “was 1.5” for “was 5”, “μM.” for “μM. The incubation time for the kinase reaction was 90 minutes.”

EGFR (WT) = biological target: T4, EGFR (WT) (Homo sapiens, UniProt P00533); assay: EGFR (WT) kinase inhibitory activity (in vitro); conditions: for IC50: cytoplasmic domain of human EGFR (WT), ATP 4.7 μM, substrate peptide 500 nM; for inhibitory activities for EGFR (WT) compared with the mutant EGFR proteins, in words: summary of Table 1
T4 construct: the cytoplasmic domain of human EGFR (WT); FLAG (N); made in house; host or cells: baculovirus expression system, insect Sf9 cells
T4 sequence (P00533 669-1210 limits assumed): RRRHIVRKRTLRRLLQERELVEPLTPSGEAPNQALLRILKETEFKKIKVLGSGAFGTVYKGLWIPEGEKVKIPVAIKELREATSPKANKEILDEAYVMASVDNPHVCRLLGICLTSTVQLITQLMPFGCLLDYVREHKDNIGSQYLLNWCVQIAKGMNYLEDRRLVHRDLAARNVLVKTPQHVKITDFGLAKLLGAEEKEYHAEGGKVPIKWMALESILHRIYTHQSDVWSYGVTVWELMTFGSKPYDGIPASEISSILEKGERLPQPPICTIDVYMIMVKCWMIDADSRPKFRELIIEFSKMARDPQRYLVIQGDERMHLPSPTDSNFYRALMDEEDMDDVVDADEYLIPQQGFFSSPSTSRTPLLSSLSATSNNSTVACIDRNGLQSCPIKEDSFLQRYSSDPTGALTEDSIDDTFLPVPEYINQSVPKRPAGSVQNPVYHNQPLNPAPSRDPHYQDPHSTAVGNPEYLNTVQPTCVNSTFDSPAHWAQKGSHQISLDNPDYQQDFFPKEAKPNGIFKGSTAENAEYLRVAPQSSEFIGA
Procedure: as §1
The inhibitory activities of the compounds I-1, I-2, I-3, I-4, I-5, I-6, I-7, I-8, and I-9 on EGFR (WT) kinase were measured.
The materials were as follows. As the EGFR (WT), the cytoplasmic domain of human EGFR (WT) in which a FLAG tag was fused to the N-terminus was expressed in a baculovirus expression system using insect Sf9 cells, and purified with anti-FLAG antibody agarose (Sigma-Aldrich). The final concentration of the substrate peptide was 500 nM, and the final concentration of ATP was 4.7 μM. As for other conditions, the same materials and methods as those used in the measurement of EGFR (T790M/L858R) kinase inhibitory activity were used to determine the IC50 value (nM) of each compound.

EGFR (L858R) = biological target: T5, EGFR (L858R) (Homo sapiens, UniProt P00533, L858R); assay: EGFR (L858R) kinase inhibitory activity (in vitro); conditions: recombinant human protein, ATP 4 μM
T5 construct: purchased Carna Biosciences, Inc
T5 sequence (P00533 25-1210 L858R): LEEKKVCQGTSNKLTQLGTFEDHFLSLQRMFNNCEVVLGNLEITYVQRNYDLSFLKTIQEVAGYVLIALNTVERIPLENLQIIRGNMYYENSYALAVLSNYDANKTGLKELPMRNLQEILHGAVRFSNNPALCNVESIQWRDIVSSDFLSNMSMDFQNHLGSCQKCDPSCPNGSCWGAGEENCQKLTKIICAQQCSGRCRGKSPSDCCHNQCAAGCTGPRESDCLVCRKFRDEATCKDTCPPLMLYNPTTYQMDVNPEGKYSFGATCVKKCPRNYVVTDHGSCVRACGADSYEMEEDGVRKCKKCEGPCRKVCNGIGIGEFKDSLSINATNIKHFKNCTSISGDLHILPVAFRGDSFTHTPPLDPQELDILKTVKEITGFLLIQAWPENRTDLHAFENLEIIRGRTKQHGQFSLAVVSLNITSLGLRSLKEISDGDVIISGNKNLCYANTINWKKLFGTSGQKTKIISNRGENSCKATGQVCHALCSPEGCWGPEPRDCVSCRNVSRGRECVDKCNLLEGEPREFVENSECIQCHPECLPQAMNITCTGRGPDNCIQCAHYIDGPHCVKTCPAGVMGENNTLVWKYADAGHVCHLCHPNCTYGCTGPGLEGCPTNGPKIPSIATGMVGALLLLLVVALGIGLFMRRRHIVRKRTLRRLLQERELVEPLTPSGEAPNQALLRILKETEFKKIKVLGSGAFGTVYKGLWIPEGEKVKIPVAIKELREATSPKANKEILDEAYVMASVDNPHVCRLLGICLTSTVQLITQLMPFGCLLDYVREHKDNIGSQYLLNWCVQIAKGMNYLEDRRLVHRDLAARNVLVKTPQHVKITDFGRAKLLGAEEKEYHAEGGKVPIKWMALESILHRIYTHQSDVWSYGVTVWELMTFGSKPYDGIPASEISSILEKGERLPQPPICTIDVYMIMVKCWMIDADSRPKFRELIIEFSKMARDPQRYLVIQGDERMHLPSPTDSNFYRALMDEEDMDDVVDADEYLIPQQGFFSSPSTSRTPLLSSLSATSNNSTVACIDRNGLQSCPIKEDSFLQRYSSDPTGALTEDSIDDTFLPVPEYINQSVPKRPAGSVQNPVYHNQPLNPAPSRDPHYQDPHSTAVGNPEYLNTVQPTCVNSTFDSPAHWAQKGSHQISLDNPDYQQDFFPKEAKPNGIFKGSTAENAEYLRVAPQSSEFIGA
Procedure: as §1
3) Measurement of EGFR (L858R) Kinase Inhibitory Activity
The inhibitory activities of the compounds I-1, I-2, I-3, I-4, I-5, I-6, I-7, I-8, and I-9 for EGFR (L858R) kinase were measured.
as §2, with “EGFR (L858R)” for “EGFR (d746-750)”, “was 4” for “was 5”, “μM.” for “μM. The incubation time for the kinase reaction was 90 minutes.”

Row | inhibitory activity for these EGFR kinases, in words (EGFR (T790M/L858R); all EGFR kinases of Test Example 1) | IC50 (EGFR (T790M/L858R)) [nM] | IC50 (EGFR (d746-750)) [nM] | IC50 (EGFR (d746-750/T790M)) [nM] | IC50 (EGFR (WT)) [nM] | IC50 (EGFR (L858R)) [nM] | inhibitory activities for EGFR (L858R), EGFR (d746-750), EGFR (T790M/L858R) and EGFR (d746-750/T790M), in words (EGFR (T790M/L858R)) | SMILES | inhibitory activities for EGFR (WT) compared with the mutant EGFR proteins, in words (EGFR (WT))
1 | almost no inhibitory activity | > 5000 | 1500 | > 5000 | > 5000 | > 5000 |  | Nc1ncnc2c1c(-c1cccc(NC(=O)c3ccccc3)c1)c1n2CCCC1 [Comp. Ex. 1, N-(3-(4-amino-6,7,8,9-tetrahydropyrimido[5,4-b]indolizin-5-yl)phenyl)benzamide, reference compound] | 
2 |  | 18 | 20 | 13 | 490 | 41 | potent inhibitory activities | C=CC(=O)N[C@H]1CCCc2c(-c3cnc4ccccc4c3)c3c(N)ncnc3n2C1 [Compound I-8, (S)-N-(4-amino-5-(quinolin-3-yl)-7,8,9,10-tetrahydro-6H-pyrimido[5′,4′:4,5]pyrrolo[1,2-a]azepin-9-yl)acrylamide] | lower than those for the above mutant EGFR proteins
3 |  | 0.4 | 0.5 | 0.3 | 5.9 | 0.7 | potent inhibitory activities | Nc1ncnc2c1c(-c1cnc3ccccc3c1)c1n2C[C@@H](NC(=O)/C=C/Cl)CC1 [Compound I-5, (S,E)-N-(4-amino-5-(quinolin-3-yl)-6,7,8,9-tetrahydropyrimido[5,4-b]indolizin-8-yl)-3-chloroacrylamide] | lower than those for the above mutant EGFR proteins
4 |  | 1.4 | 1.8 | 0.5 | 33 | 2.9 | potent inhibitory activities | C=CC(=O)N[C@H]1CCc2c(-c3cnc4ccccc4c3)c3c(N)ncnc3n2CC1 [Compound I-7, (S)-N-(4-amino-5-(quinolin-3-yl)-7,8,9,10-tetrahydro-6H-pyrimido[5′,4′:4,5]pyrrolo[1,2-a]azepin-8-yl)acrylamide] | lower than those for the above mutant EGFR proteins
5 |  | 160 | 270 | 82 | 3600 | 350 | potent inhibitory activities | C=CC(=O)N[C@@H]1CCCc2c(-c3cnc4ccccc4c3)c3c(N)ncnc3n2C1 [Compound I-9, (R)-N-(4-amino-5-(quinolin-3-yl)-7,8,9,10-tetrahydro-6H-pyrimido[5′,4′:4,5]pyrrolo[1,2-a]azepin-9-yl)acrylamide] | lower than those for the above mutant EGFR proteins
6 |  | 6.7 | 10 | 4.1 | 120 | 12 | potent inhibitory activities | CN(C)C/C=C/C(=O)NC1CCc2c(-c3cnc4ccccc4c3)c3c(N)ncnc3n2C1 (stereo not shown) [Compound I-4, (E)-N-(4-amino-5-(quinolin-3-yl)-6,7,8,9-tetrahydropyrimido[5,4-b]indolizin-8-yl)-4-(dimethylamino)-2-butenamide] | lower than those for the above mutant EGFR proteins
7 |  | 5.3 | 13 | 2.8 | 170 | 14 | potent inhibitory activities | C=CC(=O)N[C@@H]1CCc2c(-c3cnc4ccccc4c3)c3c(N)ncnc3n2C1 (single isomer, unassigned) [Compound I-1] | lower than those for the above mutant EGFR proteins
8 |  | 1.2 | 3.6 | 1.2 | 41 | 2.9 | potent inhibitory activities | Nc1ncnc2c1c(-c1cnc3ccccc3c1)c1n2C[C@@H](NC(=O)/C=C\Cl)CC1 [Compound I-6, (S,Z)—N-(4-amino-5-(quinolin-3-yl)-6,7,8,9-tetrahydropyrimido[5,4-b]indolizin-8-yl)-3-chloroacrylamide] | lower than those for the above mutant EGFR proteins
